Measured values from US10617693B2, “Methods of treating and/or preventing actinic keratosis” (Athenex, Inc., priority 2017, dated 2020).

System: subjects with AK on the face or scalp
Assay: Phase 2a study KX01-AK-002: local skin reactions (grade 0 not present to 4 worst) and adverse events, 0.5 mg KX-01 on 25 cm^2
Format: in vivo, human
Source text: An ongoing Phase 2a, open-label, multicenter, activity and safety study of KX-01 administered topically in subjects with AK on the face or scalp is described herein. […] Secondary objectives are to assess the activity of KX-01 administered topically during Days 1-57 based on reduction of AK lesion counts from baseline, assess the safety and tolerability and pharmacokinetics, and contrast the dose regimens (5-day treatment with 3-day treatment) in terms of activity and safety in subjects with AK on the face or scalp. This uncontrolled, nonrandomized trial is being conducted at 16 investigational sites in the United States. Enrollment is sequential for 2 cohorts of approximately 80 subjects each. Enrollment is closed for Cohort 1 and ongoing for Cohort 2. The two treatment cohorts are summarized below: • Cohort 1: 0.5 mg KX-01 administered topically to a contiguous treatment area of 25 cm^2 with 4-8 clinically typical AK lesions for 5 consecutive days • Cohort 2: 0.5 mg KX-01 administered topically to a contiguous treatment area of 25 cm^2 with 4-8 clinically typical AK lesions for 3 consecutive days
0.5 mg KX-01 is administered topically to an area of 25 cm^2 on the face or scalp by site staff on treatment days. […] AK lesion counts are recorded at baseline, days 8, 15, 29, and 57. […] Standardized photography of treatment area is performed at baseline, day 8 and day 57. Plasma samples are being collected at preplanned time points on days 1 and 5 for Cohort 1, and on days 1 and 3 for Cohort 2.
Absence or presence of hyperpigmentation, hypopigmentation and scarring are also assessed. Application site reactions not classified as LSRs are reported as AEs. […] LSRs and AEs are reported separately. All LSRs, pigmentation, and scarring in the treatment area will be followed to resolution or stabilization.
The range of possible composite scores is 0-24.
The Phase 2a trial described in Example 2a was completed with 84 eligible subjects enrolled in each of two cohorts: one cohort was subjected to the treatment for 5 consecutive days, and the other cohort was subjected to the treatment for 3 consecutive days. The results are described below and in FIG. 5.

[1] = Cohort 1 (5-day), 67 subjects with day 57 visit

O=C(Cc1ccc(-c2ccc(OCCN3CCOCC3)cc2)cn1)NCc1ccccc1 [KX-01]
Subjects with no LSR in the treatment area throughout the study [1]: 7
Subjects with vesiculation/pustulation [1]: Three
Number of TEAEs considered related to KX-01 (Cohort 1 (5-day), N=82): 12
Subjects reporting TEAEs considered related to KX-01 (Cohort 1 (5-day), N=82): Seven
Total number of TEAEs (Cohort 1 (5-day), N=82): 54
Cases of application site reaction (Cohort 1 (5-day), N=82, mild tenderness, stinging, pruritus): 6
Subjects whose LSRs had not returned to baseline at day 57 (Cohort 1 (5-day), of 60 subjects with LSRs): 8
Number of SAEs (Cohort 1 (5-day), in 2 subjects, none considered related to study drug): 3
Crusting grade 0, n/N subjects (Day 1, Cohort 1 (5-day)): 62/67
Crusting grade 1, n/N subjects (Day 1, Cohort 1 (5-day)): 5/67
Crusting grade 2, n/N subjects (Day 1, Cohort 1 (5-day)): 0
Crusting grade 3, n/N subjects (Day 1, Cohort 1 (5-day)): 0
Crusting grade 4, n/N subjects (Day 1, Cohort 1 (5-day)): 0
Erosion/Ulceration grade 0, n/N subjects (Day 1, Cohort 1 (5-day)): 67/67
Erosion/Ulceration grade 1, n/N subjects (Day 1, Cohort 1 (5-day)): 0
Erosion/Ulceration grade 2, n/N subjects (Day 1, Cohort 1 (5-day)): 0
Erosion/Ulceration grade 3, n/N subjects (Day 1, Cohort 1 (5-day)): 0
Erosion/Ulceration grade 4, n/N subjects (Day 1, Cohort 1 (5-day)): 0
Erythema grade 0, n/N subjects (Day 1, Cohort 1 (5-day)): 56/67
Erythema grade 1, n/N subjects (Day 1, Cohort 1 (5-day)): 11/67
Erythema grade 2, n/N subjects (Day 1, Cohort 1 (5-day)): 0
Erythema grade 3, n/N subjects (Day 1, Cohort 1 (5-day)): 0
Erythema grade 4, n/N subjects (Day 1, Cohort 1 (5-day)): 0
Flaking/Scaling grade 0, n/N subjects (Day 1, Cohort 1 (5-day)): 55/67
Flaking/Scaling grade 1, n/N subjects (Day 1, Cohort 1 (5-day)): 12/67
Flaking/Scaling grade 2, n/N subjects (Day 1, Cohort 1 (5-day)): 0
Flaking/Scaling grade 3, n/N subjects (Day 1, Cohort 1 (5-day)): 0
Flaking/Scaling grade 4, n/N subjects (Day 1, Cohort 1 (5-day)): 0
Swelling grade 0, n/N subjects (Day 1, Cohort 1 (5-day)): 67/67
Swelling grade 1, n/N subjects (Day 1, Cohort 1 (5-day)): 0
Swelling grade 2, n/N subjects (Day 1, Cohort 1 (5-day)): 0
Swelling grade 3, n/N subjects (Day 1, Cohort 1 (5-day)): 0
Swelling grade 4, n/N subjects (Day 1, Cohort 1 (5-day)): 0
Vesiculation/Pustulation grade 0, n/N subjects (Day 1, Cohort 1 (5-day)): 67/67
Vesiculation/Pustulation grade 1, n/N subjects (Day 1, Cohort 1 (5-day)): 0
Vesiculation/Pustulation grade 2, n/N subjects (Day 1, Cohort 1 (5-day)): 0
Vesiculation/Pustulation grade 3, n/N subjects (Day 1, Cohort 1 (5-day)): 0
Vesiculation/Pustulation grade 4, n/N subjects (Day 1, Cohort 1 (5-day)): 0
Crusting grade 0, n/N subjects (Day 2, Cohort 1 (5-day)): 64/67
Crusting grade 1, n/N subjects (Day 2, Cohort 1 (5-day)): 2/67
Crusting grade 2, n/N subjects (Day 2, Cohort 1 (5-day)): 1/67
Crusting grade 3, n/N subjects (Day 2, Cohort 1 (5-day)): 0
Crusting grade 4, n/N subjects (Day 2, Cohort 1 (5-day)): 0
Erosion/Ulceration grade 0, n/N subjects (Day 2, Cohort 1 (5-day)): 67/67
Erosion/Ulceration grade 1, n/N subjects (Day 2, Cohort 1 (5-day)): 0
Erosion/Ulceration grade 2, n/N subjects (Day 2, Cohort 1 (5-day)): 0
Erosion/Ulceration grade 3, n/N subjects (Day 2, Cohort 1 (5-day)): 0
Erosion/Ulceration grade 4, n/N subjects (Day 2, Cohort 1 (5-day)): 0
Erythema grade 0, n/N subjects (Day 2, Cohort 1 (5-day)): 44/67
Erythema grade 1, n/N subjects (Day 2, Cohort 1 (5-day)): 20/67
Erythema grade 2, n/N subjects (Day 2, Cohort 1 (5-day)): 3/67
Erythema grade 3, n/N subjects (Day 2, Cohort 1 (5-day)): 0
Erythema grade 4, n/N subjects (Day 2, Cohort 1 (5-day)): 0
Flaking/Scaling grade 0, n/N subjects (Day 2, Cohort 1 (5-day)): 51/67
Flaking/Scaling grade 1, n/N subjects (Day 2, Cohort 1 (5-day)): 15/67
Flaking/Scaling grade 2, n/N subjects (Day 2, Cohort 1 (5-day)): 1/67
Flaking/Scaling grade 3, n/N subjects (Day 2, Cohort 1 (5-day)): 0
Flaking/Scaling grade 4, n/N subjects (Day 2, Cohort 1 (5-day)): 0
Swelling grade 0, n/N subjects (Day 2, Cohort 1 (5-day)): 67/67
Swelling grade 1, n/N subjects (Day 2, Cohort 1 (5-day)): 0
Swelling grade 2, n/N subjects (Day 2, Cohort 1 (5-day)): 0
Swelling grade 3, n/N subjects (Day 2, Cohort 1 (5-day)): 0
Swelling grade 4, n/N subjects (Day 2, Cohort 1 (5-day)): 0
Vesiculation/Pustulation grade 0, n/N subjects (Day 2, Cohort 1 (5-day)): 67/67
Vesiculation/Pustulation grade 1, n/N subjects (Day 2, Cohort 1 (5-day)): 0
Vesiculation/Pustulation grade 2, n/N subjects (Day 2, Cohort 1 (5-day)): 0
Vesiculation/Pustulation grade 3, n/N subjects (Day 2, Cohort 1 (5-day)): 0
Vesiculation/Pustulation grade 4, n/N subjects (Day 2, Cohort 1 (5-day)): 0
Crusting grade 0, n/N subjects (Day 3, Cohort 1 (5-day)): 63/67
Crusting grade 1, n/N subjects (Day 3, Cohort 1 (5-day)): 3/67
Crusting grade 2, n/N subjects (Day 3, Cohort 1 (5-day)): 1/67
Crusting grade 3, n/N subjects (Day 3, Cohort 1 (5-day)): 0
Crusting grade 4, n/N subjects (Day 3, Cohort 1 (5-day)): 0
Erosion/Ulceration grade 0, n/N subjects (Day 3, Cohort 1 (5-day)): 66/67
Erosion/Ulceration grade 1, n/N subjects (Day 3, Cohort 1 (5-day)): 1/67
Erosion/Ulceration grade 2, n/N subjects (Day 3, Cohort 1 (5-day)): 0
Erosion/Ulceration grade 3, n/N subjects (Day 3, Cohort 1 (5-day)): 0
Erosion/Ulceration grade 4, n/N subjects (Day 3, Cohort 1 (5-day)): 0
Erythema grade 0, n/N subjects (Day 3, Cohort 1 (5-day)): 32/67
Erythema grade 1, n/N subjects (Day 3, Cohort 1 (5-day)): 24/67
Erythema grade 2, n/N subjects (Day 3, Cohort 1 (5-day)): 10/67
Erythema grade 3, n/N subjects (Day 3, Cohort 1 (5-day)): 1/67
Erythema grade 4, n/N subjects (Day 3, Cohort 1 (5-day)): 0
Flaking/Scaling grade 0, n/N subjects (Day 3, Cohort 1 (5-day)): 46/67
Flaking/Scaling grade 1, n/N subjects (Day 3, Cohort 1 (5-day)): 14/67
Flaking/Scaling grade 2, n/N subjects (Day 3, Cohort 1 (5-day)): 5/67
Flaking/Scaling grade 3, n/N subjects (Day 3, Cohort 1 (5-day)): 2/67
Flaking/Scaling grade 4, n/N subjects (Day 3, Cohort 1 (5-day)): 0
Swelling grade 0, n/N subjects (Day 3, Cohort 1 (5-day)): 67/67
Swelling grade 1, n/N subjects (Day 3, Cohort 1 (5-day)): 0
Swelling grade 2, n/N subjects (Day 3, Cohort 1 (5-day)): 0
Swelling grade 3, n/N subjects (Day 3, Cohort 1 (5-day)): 0
Swelling grade 4, n/N subjects (Day 3, Cohort 1 (5-day)): 0
